Assay: Solubility comparison: recovery of RTX by HPLC after ambient and cold (5° C.) storage in various solutions
Format: physicochemical
Settings: unmodified aqueous solution
Procedure: Independently of the formulations described in Example 1, a group of 12 surfactants was tested to compare the recovery of RTX based on HPLC analysis of samples following ambient and cold (5° C.) storage.

C=C(C)[C@]12C[C@@H](C)[C@@]34O[C@](Cc5ccccc5)(O[C@@H]1[C@@H]3C=C(COC(=O)Cc1ccc(O)c(OC)c1)C[C@]1(O)C(=O)C(C)=C[C@@H]41)O2 [RTX, resiniferatoxin]
solubility in water (in words): insolubility in water
